The target of data set [1] is T1, hGIP Receptor (Homo sapiens, UniProt P48546).
T1 construct: expressed in transfected cells; host or cells: baby hamster kidney (BHK) cells, stably transfected, with CRE-firefly luciferase reporter
T1 sequence (P48546 22-466): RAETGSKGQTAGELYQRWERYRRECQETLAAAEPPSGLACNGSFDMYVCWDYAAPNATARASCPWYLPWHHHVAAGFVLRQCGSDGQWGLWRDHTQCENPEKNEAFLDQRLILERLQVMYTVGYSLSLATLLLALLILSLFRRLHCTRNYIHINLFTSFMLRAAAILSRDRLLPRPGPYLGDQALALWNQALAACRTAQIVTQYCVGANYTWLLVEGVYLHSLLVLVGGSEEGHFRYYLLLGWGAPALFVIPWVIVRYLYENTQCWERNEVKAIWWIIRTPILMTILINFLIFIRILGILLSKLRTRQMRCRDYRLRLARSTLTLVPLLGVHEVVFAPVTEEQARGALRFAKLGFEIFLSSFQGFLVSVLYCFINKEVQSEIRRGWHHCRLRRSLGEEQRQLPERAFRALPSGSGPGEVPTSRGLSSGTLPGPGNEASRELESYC
The data set can be described thus: Receptor activation: cAMP production by CRE-luciferase reporter in stably transfected BHK cells. It is filed as cell-based. Particulars: compared to the native ligand for the receptor. The method in brief:
(§1)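 BHK cells stably expressing one human receptor plus a CRE-firefly luciferase reporter were stimulated 3 h at 37 °C in phenol-red-free DMEM with 1% ovalbumin and 0.1% Pluronic F-68.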

Data set [2] addresses T2, hGLP-1 Receptor (Homo sapiens, UniProt P43220).
T2 construct: expressed in transfected cells; host or cells: baby hamster kidney (BHK) cells, stably transfected, with CRE-firefly luciferase reporter
The description is as above. It is filed as cell-based. The note with it: compared to the native ligand for the receptor. The gist of the method:
as §1

The nature of data set [3]: in vivo. The note with it: female, Göttingen, minipig, iv, 2 nmol/kg. On the set-up: species or system Göttingen minipigs. The method, then: Studies were conducted in accordance with the Protection of Animals Act, the Act on Experiments on Animals, and the Standard Operating Procedures for Experiments on Animals at Novo Nordisk A/S. The experiments were performed under the supervision and approval of the Danish Government Animal Experiments Inspectorate and the Novo Nordisk Ethical Review Counsel. Female Göttingen minipigs (Ellegaard Göttingen Minipigs A/S), 7–14 months old and weighing 16–35 kg, were housed individually and fed once daily with a restricted SDS minipig diet (Special Diets Services). At least one week before the study, two permanent central venous catheters were implanted in the caudal vena cava of each animal. The animals were fasted for approximately 18 h before dosing and 4 h after dosing but had ad libitum access to water during the whole period. Test compounds dissolved to a concentration of 20–40 nmol/mL in a vehicle (pH 7.4) containing 0.025% polysorbate-20, 10 mM sodium phosphate, and 250 mM glycerol were administered via an intravenous injection through one catheter at a dose of 2 nmol/kg. Blood samples were collected in 8 mM aqueous EDTA for up to 14 days post dosing, preferably through the other catheter, then centrifuged at 4 °C and ∼2000g for 10 min. Plasma was isolated and immediately frozen until RP-HPLC/MS analysis. Individual plasma concentration–time profiles were analysed by a non-compartmental model in Phoenix WinNonLin software (Pharsight Inc.), and the resulting terminal half-lives were determined at the harmonic mean.

The text below walks through data of PMC9305623, “Next generation GLP-1/GIP/glucagon triple agonists normalize body weight in obese mice” (Molecular Metabolism, 2022).

*1 amine or outer side, *2 acyl side, *3 side chain or, on linkers, in order; H or OH if unused. Where a SMILES comes first, the peptide text is derived from it. Side-chain parts run from the residue outwards. [ ]: non-standard residue; d: D form. The star is where a group is joined. C20 diacid = O=C(O)CCCCCCCCCCCCCCCCCCC(=O)*; γGlu = O=C(O)[C@H](CCC(=O)[*:2])N[*:1]; εLys = N[C@@H](CCCCN[*:1])C(=O)[*:2]; Aib = CC(C)(N)C(=O)O

The term Vd denotes the apparent volume that relates the amount in the body to the concentration in plasma or blood. Low values mean confinement near the circulation, high ones extensive tissue distribution. One may read the clearance as the volume of plasma or blood freed of the substance per unit of time. The low end stands for a low capacity for elimination, the high end for a high capacity for elimination. A word on the half-life: it is how long it takes for the measured level to halve. A high value points to slow loss.

T2 sequence (P43220 24-463): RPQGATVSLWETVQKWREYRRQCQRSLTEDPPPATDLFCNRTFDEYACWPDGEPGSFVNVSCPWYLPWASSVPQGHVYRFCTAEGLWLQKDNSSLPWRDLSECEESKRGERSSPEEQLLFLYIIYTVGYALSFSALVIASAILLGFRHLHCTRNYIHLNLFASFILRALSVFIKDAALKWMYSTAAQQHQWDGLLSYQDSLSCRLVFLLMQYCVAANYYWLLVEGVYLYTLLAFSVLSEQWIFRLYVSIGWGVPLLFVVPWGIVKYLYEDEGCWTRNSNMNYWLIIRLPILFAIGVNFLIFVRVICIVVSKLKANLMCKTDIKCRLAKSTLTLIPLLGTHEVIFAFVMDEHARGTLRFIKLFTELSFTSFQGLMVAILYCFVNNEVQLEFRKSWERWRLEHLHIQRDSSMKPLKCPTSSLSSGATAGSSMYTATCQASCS

Regarding `CC[C@H](C)[C@H](NC(=O)[C@H](CO)NC(=O)[C@H](Cc1ccc(O)cc1)NC(=O)[C@H](CC(=O)O)NC(=O)[C@H](CO)NC(=O)[C@@H](NC(=O)[C@H](Cc1ccccc1)NC(=O)[C@@H](NC(=O)CNC(=O)[C@H](Cc1c[nH]cn1)NC(=O)C(C)(C)NC(=O)[C@@H](N)Cc1c[nH]cn1)[C@@H](C)O)[C@@H](C)O)C(=O)N[C@@H](Cc1ccc(O)cc1)C(=O)N[C@@H](CC(C)C)C(=O)N[C@@H](CCC(=O)O)C(=O)N[C@@H](CCCCNC(=O)[C@@H](N)CCCCNC(=O)[C@@H](N)CCCCNC(=O)CC[C@H](NC(=O)CCCCCCCCCCCCCCCCCCC(=O)O)C(=O)O)C(=O)N[C@@H](CCCCN)C(=O)N[C@@H](Cc1ccc(O)cc1)C(=O)N[C@@H](C)C(=O)NC(C)(C)C(=O)N[C@@H](CCC(=O)O)C(=O)N[C@@H](Cc1ccccc1)C(=O)N[C@H](C(=O)N[C@@H](CCC(N)=O)C(=O)N[C@@H](Cc1c[nH]c2ccccc12)C(=O)N[C@@H](CC(C)C)C(=O)N[C@@H](CC(C)C)C(=O)N[C@@H](CCC(=O)O)C(=O)NCC(=O)NCC(=O)N1CCC[C@H]1C(=O)N[C@@H](CO)C(=O)N[C@@H](CO)C(=O)NCC(=O)N[C@@H](C)C(=O)N1CCC[C@H]1C(=O)N1CCC[C@H]1C(=O)N1CCC[C@H]1C(=O)N[C@@H](CO)C(N)=O)C(C)C` [Compound 16] (H-H[Aib]HGTFTSDYSIYLEK([εLys-εLys-γGlu-C20 diacid])KYA[Aib]EFVQWLLEGGPSSGAPPPS-NH2), the “hGIP Receptor Relative Potency %” value in data set [1] was found to be 67%. Also, the “hGLP-1 Receptor Relative Potency %” value in data set [2] amounted to 177%. In addition, in data set [3], the Vd stood at 0.164 L/kg, the clearance is 1.5 mL/h/kg and the half-life was 75 h.
